# According to PubChem BioAssay AID1963846 (Molecular Pharmacology Branch, DTP, NCI, 2024):
# System: 454973-116-R2-J3-PDC complex spheroid viability
# Assay: Anticancer human tumor 454973-116-R2-J3-PDC patient-derived pancreatic carcinoma cell line growth inhibition [POLQ]
# Conditions: for IC50: curve of first compound; for viability, T/C: stronger effect = lower value
# In short: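 Patient-derived tumour cells were co-cultured with HUVEC and mesenchymal stem cells as multicellular spheroids at 37 °C. They were treated with POLQ inhibitors (novobiocin, ART-558, RP6685) alone or combined with other agents. Top concentrations were at or near clinical Cmax (otherwise 10 microM; SN-38 at 1 microM), decreasing in half-log steps.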
# [1] = second compound 0.0316 µM, first compound 0.00316 µM
# [2] = second compound 0.0316 µM, first compound 0.01 µM
# [3] = second compound 0.0316 µM, first compound 0.0316 µM
# [4] = second compound 0.0316 µM, first compound 0.1 µM
# [5] = second compound 0.0316 µM, first compound 0.316 µM
# [6] = second compound 0.0316 µM, first compound 1 µM
# [7] = second compound 0.1 µM, first compound 0.00316 µM
# [8] = second compound 0.1 µM, first compound 0.01 µM
# [9] = second compound 0.1 µM, first compound 0.0316 µM
# [10] = second compound 0.1 µM, first compound 0.1 µM
# [11] = second compound 0.1 µM, first compound 0.316 µM
# [12] = second compound 0.1 µM, first compound 1 µM
# [13] = second compound 0.316 µM, first compound 0.00316 µM
# [14] = second compound 0.316 µM, first compound 0.01 µM
# [15] = second compound 0.316 µM, first compound 0.0316 µM
# [16] = second compound 0.316 µM, first compound 0.1 µM
# [17] = second compound 0.316 µM, first compound 0.316 µM
# [18] = second compound 0.316 µM, first compound 1 µM
# [19] = second compound 1 µM, first compound 0.00316 µM
# [20] = second compound 1 µM, first compound 0.01 µM
# [21] = second compound 1 µM, first compound 0.0316 µM
# [22] = second compound 1 µM, first compound 0.1 µM
# [23] = second compound 1 µM, first compound 0.316 µM
# [24] = second compound 1 µM, first compound 1 µM
# [25] = second compound 3.16 µM, first compound 0.00316 µM
# [26] = second compound 3.16 µM, first compound 0.01 µM
# [27] = second compound 3.16 µM, first compound 0.0316 µM
# [28] = second compound 3.16 µM, first compound 0.1 µM
# [29] = second compound 3.16 µM, first compound 0.316 µM
# [30] = second compound 3.16 µM, first compound 1 µM
# [31] = second compound 10 µM, first compound 0.00316 µM
# [32] = second compound 10 µM, first compound 0.01 µM
# [33] = second compound 10 µM, first compound 0.0316 µM
# [34] = second compound 10 µM, first compound 0.1 µM
# [35] = second compound 10 µM, first compound 0.316 µM
# [36] = second compound 10 µM, first compound 1 µM
# [37] = second compound 0.0316 µM, first compound 3.16 µM
# [38] = second compound 0.0316 µM, first compound 10 µM
# [39] = second compound 0.1 µM, first compound 3.16 µM
# [40] = second compound 0.1 µM, first compound 10 µM
# [41] = second compound 0.316 µM, first compound 3.16 µM
# [42] = second compound 0.316 µM, first compound 10 µM
# [43] = second compound 1 µM, first compound 3.16 µM
# [44] = second compound 1 µM, first compound 10 µM
# [45] = second compound 3.16 µM, first compound 3.16 µM
# [46] = second compound 3.16 µM, first compound 10 µM
# [47] = second compound 10 µM, first compound 3.16 µM
# [48] = second compound 10 µM, first compound 10 µM
# 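Note: spheroids exposed to drugs for seven days before measurement.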
# 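Throughout, for viability, T/C: percent viability relative to DMSO vehicle control wells taken as 100%.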
smiles,measurement,setting,value
C=CCn1c(=O)c2cnc(Nc3ccc(N4CCN(C)CC4)cc3)nc2n1-c1cccc(C(C)(C)O)n1 + Cc1cccc(N(C)C(=O)C2C(O)CCN2c2nc(C)cc(C(F)(F)F)c2C#N)c1,IC50,second compound 0.0316 µM,470 nM
same,IC50,second compound 0.1 µM,464 nM
same,IC50,second compound 0.316 µM,449 nM
same,IC50,second compound 1 µM,481 nM
same,IC50,second compound 3.16 µM,479 nM
same,IC50,second compound 10 µM,452 nM
same,"viability, T/C",[1],109%
same,"viability, T/C",[2],103%
same,"viability, T/C",[3],105%
same,"viability, T/C",[4],106%
same,"viability, T/C",[5],71.5%
same,"viability, T/C",[6],9.25%
same,"viability, T/C",[7],98%
same,"viability, T/C",[8],104%
same,"viability, T/C",[9],102%
same,"viability, T/C",[10],108%
same,"viability, T/C",[11],70.7%
same,"viability, T/C",[12],8.44%
same,"viability, T/C",[13],96.6%
same,"viability, T/C",[14],98.9%
same,"viability, T/C",[15],103%
same,"viability, T/C",[16],103%
same,"viability, T/C",[17],68.4%
same,"viability, T/C",[18],7.81%
same,"viability, T/C",[19],113%
same,"viability, T/C",[20],97.3%
same,"viability, T/C",[21],104%
same,"viability, T/C",[22],110%
same,"viability, T/C",[23],74.1%
same,"viability, T/C",[24],7.99%
same,"viability, T/C",[25],112%
same,"viability, T/C",[26],106%
same,"viability, T/C",[27],99.7%
same,"viability, T/C",[28],102%
same,"viability, T/C",[29],72.8%
same,"viability, T/C",[30],9.03%
same,"viability, T/C",[31],105%
same,"viability, T/C",[32],105%
same,"viability, T/C",[33],97%
same,"viability, T/C",[34],98.8%
same,"viability, T/C",[35],68.5%
same,"viability, T/C",[36],8.81%
CCc1c2c(nc3ccc(O)cc13)-c1cc3c(c(=O)n1C2)COC(=O)[C@]3(O)CC + Cc1cccc(N(C)C(=O)C2C(O)CCN2c2nc(C)cc(C(F)(F)F)c2C#N)c1,IC50,second compound 0.0316 µM,< 3.16 nM
same,IC50,second compound 0.1 µM,< 3.16 nM
same,IC50,second compound 0.316 µM,< 3.16 nM
same,IC50,second compound 1 µM,< 3.16 nM
same,IC50,second compound 3.16 µM,< 3.16 nM
same,IC50,second compound 10 µM,< 3.16 nM
same,"viability, T/C",[1],32.6%
same,"viability, T/C",[2],17.2%
same,"viability, T/C",[3],13.2%
same,"viability, T/C",[4],6.84%
same,"viability, T/C",[5],2.58%
same,"viability, T/C",[6],1.69%
same,"viability, T/C",[7],31.1%
same,"viability, T/C",[8],19.1%
same,"viability, T/C",[9],13.6%
same,"viability, T/C",[10],5.52%
same,"viability, T/C",[11],2.13%
same,"viability, T/C",[12],1.7%
same,"viability, T/C",[13],28.8%
same,"viability, T/C",[14],17.2%
same,"viability, T/C",[15],15%
same,"viability, T/C",[16],5.17%
same,"viability, T/C",[17],1.9%
same,"viability, T/C",[18],1.61%
same,"viability, T/C",[19],35.7%
same,"viability, T/C",[20],18.7%
same,"viability, T/C",[21],11.5%
same,"viability, T/C",[22],5.4%
same,"viability, T/C",[23],2.24%
same,"viability, T/C",[24],1.72%
same,"viability, T/C",[25],33.6%
same,"viability, T/C",[26],21.9%
same,"viability, T/C",[27],13.1%
same,"viability, T/C",[28],5.13%
same,"viability, T/C",[29],2.23%
same,"viability, T/C",[30],1.68%
same,"viability, T/C",[31],26.3%
same,"viability, T/C",[32],21.5%
same,"viability, T/C",[33],12.8%
same,"viability, T/C",[34],4.56%
same,"viability, T/C",[35],1.72%
same,"viability, T/C",[36],4.16%
Nc1ccn(C2OC(CO)C(O)C2(F)F)c(=O)n1 (stereo not drawn) + Cc1cccc(N(C)C(=O)C2C(O)CCN2c2nc(C)cc(C(F)(F)F)c2C#N)c1,IC50,second compound 0.0316 µM,< 31.6 nM
same,IC50,second compound 0.1 µM,< 31.6 nM
same,IC50,second compound 0.316 µM,< 31.6 nM
same,IC50,second compound 1 µM,< 31.6 nM
same,IC50,second compound 3.16 µM,< 31.6 nM
same,IC50,second compound 10 µM,< 31.6 nM
same,"viability, T/C",[3],13.4%
same,"viability, T/C",[4],13.4%
same,"viability, T/C",[5],14.2%
same,"viability, T/C",[6],12.5%
same,"viability, T/C",[37],12.3%
same,"viability, T/C",[38],12.7%
same,"viability, T/C",[9],16.2%
same,"viability, T/C",[10],11.9%
same,"viability, T/C",[11],13.7%
same,"viability, T/C",[12],15.5%
same,"viability, T/C",[39],13.5%
same,"viability, T/C",[40],13.9%
same,"viability, T/C",[15],15.1%
same,"viability, T/C",[16],13.8%
same,"viability, T/C",[17],14.2%
same,"viability, T/C",[18],14.2%
same,"viability, T/C",[41],13.6%
same,"viability, T/C",[42],12.8%
same,"viability, T/C",[21],14.1%
same,"viability, T/C",[22],11.7%
same,"viability, T/C",[23],13.9%
same,"viability, T/C",[24],14.6%
same,"viability, T/C",[43],12.5%
same,"viability, T/C",[44],11.8%
same,"viability, T/C",[27],16.9%
same,"viability, T/C",[28],13.5%
same,"viability, T/C",[29],14.8%
same,"viability, T/C",[30],13.8%
same,"viability, T/C",[45],12.5%
same,"viability, T/C",[46],14%
same,"viability, T/C",[33],13.6%
same,"viability, T/C",[34],14.2%
same,"viability, T/C",[35],17.1%
same,"viability, T/C",[36],14.2%
same,"viability, T/C",[47],13.8%
same,"viability, T/C",[48],11.9%
O=C(c1cc(Cc2n[nH]c(=O)c3ccccc23)ccc1F)N1CCN(C(=O)C2CC2)CC1 + Cc1cccc(N(C)C(=O)C2C(O)CCN2c2nc(C)cc(C(F)(F)F)c2C#N)c1,IC50,second compound 0.0316 µM,> 10000 nM
same,IC50,second compound 0.1 µM,> 10000 nM
same,IC50,second compound 0.316 µM,> 10000 nM
same,IC50,second compound 1 µM,> 10000 nM
same,IC50,second compound 3.16 µM,> 10000 nM
same,IC50,second compound 10 µM,> 10000 nM
same,"viability, T/C",[3],99.8%
same,"viability, T/C",[4],107%
same,"viability, T/C",[5],95.3%
same,"viability, T/C",[6],103%
same,"viability, T/C",[37],98%
same,"viability, T/C",[38],61.4%
same,"viability, T/C",[9],94.7%
same,"viability, T/C",[10],103%
same,"viability, T/C",[11],103%
same,"viability, T/C",[12],99.3%
same,"viability, T/C",[39],91.4%
same,"viability, T/C",[40],64.8%
same,"viability, T/C",[15],99.1%
same,"viability, T/C",[16],110%
same,"viability, T/C",[17],106%
same,"viability, T/C",[18],106%
same,"viability, T/C",[41],94.5%
same,"viability, T/C",[42],61%
same,"viability, T/C",[21],105%
same,"viability, T/C",[22],96.8%
same,"viability, T/C",[23],109%
same,"viability, T/C",[24],102%
same,"viability, T/C",[43],91.1%
same,"viability, T/C",[44],62%
same,"viability, T/C",[27],108%
same,"viability, T/C",[28],98.5%
same,"viability, T/C",[29],104%
same,"viability, T/C",[30],96.2%
same,"viability, T/C",[45],96.3%
same,"viability, T/C",[46],62.6%
same,"viability, T/C",[33],108%
same,"viability, T/C",[34],105%
same,"viability, T/C",[35],102%
same,"viability, T/C",[36],98.4%
same,"viability, T/C",[47],92%
same,"viability, T/C",[48],57.7%
